Results taken from patent publication US4091102A, “Anti-depressant trans-hexahydropyrido[3,4-b]indoles” (Endo Laboratories, Inc., priority 1976, dated 1978).
Read-outs that look alike come from different tables or passages of the source.

Tested on: tetrabenazine-induced sedation and depression in mice
Experiment: Antagonism of tetrabenazine-induced depression in mice orally at 1 hour post-drug
Type: in vivo, Carworth CF1 S female mice
Conditions: Mus musculus, oral, 1 hour post-drug (30 minutes after tetrabenazine 32 mg/kg intraperitoneally)
From the text: A standard procedure for detecting and comparing the antidepressant activity of compounds in this series for which there is good correlation with human efficacy is the prevention of tetrabenazine-induced sedation and depression in mice. (Everett, "The Dopa Response Potentiation Test and Its Use in Screening for Antidepressant Drugs", pp. 164-167 in "Antidepressant Drugs" [Proceedings of the First International Symposium], S. Garattini and M. N. G. Dukes, eds., 1967.). Groups of 10 Carworth CF1 S female mice, 18-21 g. each, were fasted 1.5 hours and were intubated with antagonist compounds at oral doses of 0, 5, 25, and 125 mg/kg or 0, 1, 3, 9, 27, and 81 mg/kg in 0.20 ml. of 1% Methocel (methylcellulose). The mice were challenged 30 minutes later with tetrabenazine (as the methane-sulfonate), 32 mg/kg intraperitoneally (dissolved in 0.20 ml. 0.05M KCl at pH 2.0). One hour after antagonist (30 minutes after tetrabenazine), the mice were examined for signs of exploratory activity and ptosis (eyelid closure). Normal exploratory activity (relief from sedation) was recorded when a mouse lifted by the tail from a group of 10 in a testing box and placed on a stainless steel testing box lid (12.5 × 8 inches with 0.33 inch mesh) either turned its head horizontally 30° in both directions or moved to the edge of the screen within 10 seconds after being placed on the screen. Relief from ptosis was recorded when exactly 2 seconds after placing the mouse facing the observer, lid closure was less than 50% in both eyes. The following table gives results. |ANTAGONISM OF TETRABENAZINE-INDUCED |DEPRESSION IN MICE ORALLY AT 1 HOUR |POST-DRUG

[1] = lid closure less than 50% in both eyes, read-out: ED50 for prevention of ptosis
[2] = relief from sedation (exploratory activity), read-out: ED50 for prevention of exploratory loss

SMILES	ED50 [1] [mg/kg]	ED50 [2] [mg/kg]
CN(C)CCC=C1c2ccccc2CCc2ccccc21 [Amitriptyline, amitriptyline, reference compound]	1.7	4.7
CCN1CCC2c3ccccc3N(c3ccccc3)C2C1C (stereo not drawn) [Ia]	3	4.2
CC1C2C(CCN1C)c1ccccc1N2c1ccccc1 (stereo not drawn) [Ib]	16	38
CCCN1CCC2c3ccccc3N(c3ccccc3)C2C1C (stereo not drawn) [Ic]	14	38
CC(C)N1CCC2c3ccccc3N(c3ccccc3)C2C1C (stereo not drawn) [Id]	11.2	19
CCC1C2C(CCN1C)c1ccccc1N2c1ccccc1 (stereo not drawn) [Ie]	9.1	11.2
CCC1C2C(CCN1CC)c1ccccc1N2c1ccccc1 (stereo not drawn) [If]	27	38
CC1NCCC2c3ccccc3N(c3ccccc3)C12 (stereo not drawn) [Ig]	25	31
CCN1CC2C(CC1C)c1ccccc1N2c1ccccc1 (stereo not drawn) [Ij]	< 5	< 5
